From US9617276B2, “Compounds and methods for treating AIDS and HIV infections” (priority 2009, dated 2017)
Like-named read-outs stand apart in the source and are kept apart here.

Assays:
HIV-1 [1] = details: prior inhibitors; read-out: ID50 (the source's name); cited from earlier work
HIV-1 protease = target: T1, HIV-1 protease (Human immunodeficiency virus type 1 group M subtype B, UniProt P04585); assay: HIV protease enzyme inhibition, fluorometric assay of Toth and Marshall; assay type: biochemical; details: Ki, Table 2
T1 construct: A simple, continuous fluorometric assay for HIV protease
Procedure: (§1) The inhibitory potencies of acyclic and cyclic inhibitors were measured by the assay protocol of Toth and Marshall (Toth, M. V.; Marshall, G. R. A simple, continuous fluorometric assay for HIV protease. Int. J. Pep. Protien Res. 1990, 36, 544-55).

HIV-1 [2] = assay: antiviral assay (IC50); assay type: cell-based; details: Human immunodeficiency virus 1, Table 2; read-out: IC50
Procedure: as §1

HIV-1LAI = assay: drug susceptibility, MT-2 cells, MTT assay, HIV-1LAI; assay type: cell-based
Procedure: (§2) All assays were performed in duplicate or triplicate. […] All assays were performed in duplicate or triplicate.
(§3) Each selectivity index denotes a ratio of CC50 to EC50 against HIV-1LAI N.D., not done.

cytotoxicity CC50 = assay type: cell-based, Human; details: human
HIV-1NL4-3 [3] = assay: p24 Gag inhibition in MT-4 cells, HIV-1NL4-3; assay type: cell-based; details: Human immunodeficiency virus 1, MT4, read-out: EC50 (μM), HIV-1NL4-3, Table 9, mean ± 1 SD
Procedure: as §2

HIV-1216-P50 = assay: microbe, parasite or virus in culture; assay type: cell-based, HIV-1
Procedure: (§4) Briefly, MT-2 cells (2×10^4/ml) were exposed to 100 50% tissue culture infectious doses (TCID50S) of HIV-1LAI, in the presence or absence of various concentrations of drugs in 96-well microculture plates and were incubated at 37° C. for 7 days. After 100 μl of the medium was removed from each well, 3-(4,5-dimetylthiazol-2-yl)-2,5-diphenyltetrazolium bromide (MTT) solution (10 μl, 7.5 mg/ml in phosphate-buffered saline) was added to each well in the plate, followed by incubation at 37° C. for 3 h. […] All assays were performed in duplicate or triplicate. […] To determine the drug susceptibility of certain laboratory HIV-1 strains, MT-4 cells were used as target cells. In brief, MT-4 cells (10^5/ml) were exposed to 100 TCID50S of drug-resistant HIV-1 strains in the presence or absence of various concentrations of drugs and on day 7 of culture, the supernatant was harvested and the amounts of p24 Gag protein were determined. […] All assays were performed in duplicate or triplicate.
(§5) Numbers in parentheses represent n-fold changes in EC50s for each isolate compared to the EC50s for wild-type HIV-1NL4-3.

HIV-1246-1μM = assay: microbe, parasite or virus in culture; assay type: cell-based, HIV-1; details: for EC50: Human immunodeficiency virus 1, MT4, read-out: EC50 (μM), HIV-1246-1 μM
Procedure: as §4, §5

HIV-1286-1μM = assay: microbe, parasite or virus in culture; assay type: cell-based, HIV-1
Procedure: as §4, §5

HIV-1396-1μM = assay: microbe, parasite or virus in culture; assay type: cell-based, HIV-1; details: for EC50: Human immunodeficiency virus 1, MT4, read-out: EC50 (μM), HIV-1396-1 μM
Procedure: as §4, §5

HIV-1NL4-3 [4] = assay: in vitro selection of PI-resistant HIV-1 variants in MT-4 cells; assay type: cell-based; details: HIV-1NL4-3 in MT-4 cells, increasing drug concentrations
From the text: The culture supernatants were harvested on day 7 and used to infect fresh MT-4 cells for the next round of culture in the presence of increasing concentrations of each drug.

HIV-2EHO = assay: drug susceptibility, MT-2 cells, MTT assay, HIV-2EHO; assay type: cell-based; details: Human immunodeficiency virus 2, MT2, read-out: EC50 (μM) for HIV-2EHO
Procedure: as §2, §3

HIV-2ROD = assay: drug susceptibility, MT-2 cells, MTT assay, HIV-2ROD; assay type: cell-based; details: Human immunodeficiency virus 2, MT2, read-out: EC50 (μM) for HIV-2ROD
Procedure: as §2, §3

HIV-1APV5μM = assay: microbe, parasite or virus in culture; assay type: cell-based; details: Human immunodeficiency virus 1, MT4, read-out: EC50 (μM), HIV-1APV5 μM
Procedure: (§6) The susceptibility of HIV-1LAI and primary HIV-1 isolates to various drugs were determined as described previously (Koh et al. 2003 Antimicrob Agents Chemother 47:3123-9). Briefly, MT-2 cells (2×10^4/ml) were exposed to 100 50% tissue culture infectious doses (TCID50S) of HIV-1LAI, in the presence or absence of various concentrations of drugs in 96-well microculture plates and were incubated at 37° C. for 7 days. After 100 μl of the medium was removed from each well, 3-(4,5-dimetylthiazol-2-yl)-2,5-diphenyltetrazolium bromide (MTT) solution (10 μl, 7.5 mg/ml in phosphate-buffered saline) was added to each well in the plate, followed by incubation at 37° C. for 3 h. […] All assays were performed in duplicate or triplicate. To determine the susceptibility of primary HIV-1 isolates to drugs, phytohemagglutinin-activated peripheral blood mononuclear cells (PHA-PBMCs; 106/ml) were exposed to 50 TCID50S of each. The target cells were exposed to HIV-1104pre or drug-resistant HIV-1 in the presence or absence of various concentrations of drugs and were incubated for 7 days. Upon the conclusion of the culture, the amounts of p24 Gag protein in the supernatants were determined using a fully automated chemiluminescent enzyme immunoassay system (Lumipulse F; Fujirebio Inc., Tokyo, Japan) (Maeda et al. 2001 J Biol Chem 276:35194-200). To determine the drug susceptibility of certain laboratory HIV-1 strains, MT-4 cells were used as target cells. In brief, MT-4 cells (10^5/ml) were exposed to 100 TCID50S of drug-resistant HIV-1 strains in the presence or absence of various concentrations of drugs and on day 7 of culture, the supernatant was harvested and the amounts of p24 Gag protein were determined. […] All assays were performed in duplicate or triplicate.
as §5

HIV-1LPV5μM = assay: microbe, parasite or virus in culture; assay type: cell-based; details: Human immunodeficiency virus 1, MT4, read-out: EC50 (μM), HIV-1LPV5 μM
Procedure: as §6, §5

[5] = tested on: multidrug-resistant clinical HIV-1 isolates (HIV-1MDR); assay: microbe, parasite or virus in culture; assay type: cell-based
Procedure: as §6
(§7) These clinical strains contained 9 to 14 amino acid substitutions in the protease-encoding region, which have reportedly been associated with HIV-1 resistance to various PIs.
(§8) Amino acid substitutions identified in the protease-encoding region compared to the consensus type B sequence cited from the Los Alamos database include L63P in HIV-1ERS104pre; L10I, K14R, L33I, M36I, M46I, F53I, K55R, I62V, L63P, A71V, G73S, V82A, L90M, and I93L in HIV-1MDR/B; L10I, I15V, K20R, L24I, M36I, M46L, I54V, I62V, L63P, K70Q, V82A, and L89M in HIV-1MDR/C; L10I, V11I, T12E, I15V, L19I, R41K, M46L, L63P, A71T, V82A, and L90M in HIV-1MDR/G; L10I, K14R, R41K, M46L, I54V, L63P, A71V, V82A, L90M, I93L in HIV-1MDR/TM; L10I, K43T, M46L, I54V, L63P, A71V, V82A, L90M, and Q92K in HIV-1MDR/MM; L10I, L24I, I33F, E35D, M36I, N37S, M46L, I54V, R57K, I62V, L63P, A71V, G73S, and V82A in HIV-1MDR/JSL. HIV-1ERS104pre served as a source of wild-type HIV-1. EC50s were determined by using PHA-PBMs as target cells, and inhibition of p24 Gag protein production by each drug was used as an end point. Numbers in parentheses represent n-fold changes of EC50s for each isolate compared to EC50s for wild-type HIV-1ERS104pre.

[6] = tested on: HIV-1ERS104pre (wild-type); assay: p24 Gag inhibition in PHA-PBMCs, HIV-1ERS104pre; assay type: cell-based; details: mean ± 1 SD
Procedure: as §6, §7, §8

HIV-1MDR/B = assay type: cell-based
Procedure: as §6, §7, §8

HIV-1MDR/C = assay type: cell-based
Procedure: as §6, §7, §8

HIV-1MDR/G = assay type: cell-based
Procedure: as §6, §7, §8

HIV-1MDR/TM = assay type: cell-based
Procedure: as §6, §7, §8

HIV-1MDR/JSL = assay: microbe, parasite or virus in culture; assay type: cell-based
Procedure: as §6, §7, §8

HIV-1MDR/MM = assay: microbe, parasite or virus in culture; assay type: cell-based
Procedure: as §6, §7, §8

[7] = compared to wild-type HIV-1NL4-3
[8] = compared to wild-type HIV-1ERS104pre

SMILES: COc1ccc(S(=O)(=O)N(CC(C)C)CC(O)C(Cc2ccccc2)NC(=O)OC2COC3OCCC23)cc1 (stereo not shown) [Compound 2, TMC-126]
- IC50 (HIV-1 [1]): 1.2 nM

SMILES: COc1ccc2c(c1)OCC=CCCCCN(CC(O)C(Cc1ccccc1)NC(=O)OC1COC3OCCC13)S2(=O)=O (stereo not shown) [Compound 14d]
- Ki (HIV-1 protease): < 1 nM
- IC50 (HIV-1 [2]): < 100 nM
- EC50 (HIV-1LAI; Human immunodeficiency virus 1, MT2, read-out: EC50 (μM) for HIV-1LAI): 0.014 ± 0.001 µM
- Selectivity Index (HIV-1LAI; ratio of CC50 to EC50 against HIV-1LAI): 3,200
- CC50 (cytotoxicity CC50): 44900 ± 4100 nM
- EC50 (HIV-1NL4-3 [3]): 0.017 ± 0.005 µM
- EC50 (HIV-1216-P50; Human immunodeficiency virus 1, MT4, read-out: EC50 (μM), HIV-1216-p50): 0.24 ± 0.06 µM
- n-fold change in EC50, HIV-1216-p50 (HIV-1216-P50; [7]): (14)
- EC50 (HIV-1246-1μM): 0.37 ± 0.013 µM
- n-fold change in EC50, HIV-1246-1 μM (HIV-1246-1μM; [7]): (22)
- EC50 (HIV-1286-1μM; Human immunodeficiency virus 1, MT4, read-out: EC50 (μM), HIV-1286-1 μM): > 1 µM
- n-fold change in EC50, HIV-1286-1 μM (HIV-1286-1μM; [7]): > 59
- EC50 (HIV-1396-1μM): 0.52 ± 0.07 µM
- n-fold change in EC50, HIV-1396-1 μM (HIV-1396-1μM; [7]): (31)
- passage by which HIV-1 variants replicating in the presence of 1 μM drug emerged (HIV-1NL4-3 [4]): 33 passages

SMILES: CC(C)CN(C[C@@H](O)[C@H](Cc1ccccc1)NC(=O)O[C@H]1CO[C@H]2OCC[C@H]21)S(=O)(=O)c1ccc(N)cc1 [DRV, Darunavir]
- EC50 (HIV-2EHO): 0.008 ± 0.007 µM
- EC50 (HIV-2ROD): 0.01 ± 0.004 µM
- EC50 (HIV-1APV5μM): 0.29 ± 0.0018 µM
- EC50 (HIV-1LPV5μM): 0.025 ± 0.0066 µM
- EC50 ([5]; Human immunodeficiency virus 1, read-out: greatest EC50 value against the clinical isolates): 27 nM
- EC50 (HIV-1246-1μM): 0.029 ± 0.001 µM
- EC50 (HIV-1396-1μM): 0.016 ± 0.001 µM

SMILES: CC(C)(C)NC(=O)[C@@H]1CN(Cc2cccnc2)CCN1C[C@@H](O)C[C@@H](Cc1ccccc1)C(=O)N[C@H]1c2ccccc2C[C@H]1O [IDV, Indinavir]
- EC50 (μM), HIV-1ERS104pre (wild-type SI) [6]: 0.043 ± 0.004 µM
- EC50 (μM), HIV-1MDR/B (SI) (HIV-1MDR/B; PHA-PBMCs, p24 Gag): > 1 µM
- n-fold change of EC50, HIV-1MDR/B (HIV-1MDR/B; [8]): > 23
- EC50 (μM), HIV-1MDR/C (SI) (HIV-1MDR/C; PHA-PBMCs, p24 Gag): > 1 µM
- n-fold change of EC50, HIV-1MDR/C (HIV-1MDR/C; [8]): > 23
- EC50 (μM), HIV-1MDR/G (SI) (HIV-1MDR/G; PHA-PBMCs, p24 Gag): 0.34 ± 0.14 µM
- n-fold change of EC50, HIV-1MDR/G (HIV-1MDR/G; [8]): (5)
- EC50 (μM), HIV-1MDR/TM (SI) (HIV-1MDR/TM; PHA-PBMCs, p24 Gag): > 1 µM
- n-fold change of EC50, HIV-1MDR/TM (HIV-1MDR/TM; [8]): > 23
- EC50 (HIV-1MDR/JSL; Human immunodeficiency virus 1, read-out: EC50 (μM), HIV-1MDR/JSL (NSI)): > 1 µM
- n-fold change of EC50, HIV-1MDR/JSL (HIV-1MDR/JSL; [8]): > 23
- EC50 (HIV-1MDR/MM; Human immunodeficiency virus 1, read-out: EC50 (μM), HIV-1MDR/MM (NSI)): > 1 µM
- n-fold change of EC50, HIV-1MDR/MM (HIV-1MDR/MM; [8]): > 23
- EC50 ([5]; Human immunodeficiency virus 1, read-out: EC50 with multidrug-resistant clinical HIV-1 isolates (mostly)): > 1000 nM
